Reference: patent US12152051B2, “Cyclic dinucleotide analogue, pharmaceutical composition thereof, and application” (SHANGHAI DE NOVO PHARMATECH CO., LTD., priority 2018, dated 2024)
pEC50: −log10 of the molar value.

Assays:
[1] = test system: THP-1 dual cells; assay: Type 1 IFN activation assay (THP-1 dual cells, QUANTI-Luc); format: cell-based; details: PMA-treated THP-1 dual cells, compound in digitonin PB buffer 30 min, then 24 h, expression level of IFN
Protocol: Plated THP-1 dual cells (Invivogen) as 100000 cells/well in a 96 well-plate, and then phorbol 12-myristate 13-acetate (PMA) was added and the final concentration of PMA was 30 ng/mL. After 24 h incubation, cells were washed with fresh medium for twice, and 3-folds dilution compounds were added to appropriate wells. The compounds were diluted by PB buffer (50 mM HEPES, 100 mM KCl, 3 mM MgCl2, 0.1 mM DTT, 85 mM sucrose, 1 mM ATP, 0.1 mM GTP, 0.2% o bovine serum albumin and 5 μg/ml digitonin) and the top dose was 10 μM, minimum dose was 0.0015 μM. The cells were incubated for 30 min, and then washed with fresh medium for twice again. Add fresh medium, and the cells were incubated for additional 24 h. After incubation, 10 ul supermant and 50 μL QUANTI-Luc (Invivogen) was add to a 96 well-plate, fluorescence was read with TECAN. The express level of IFN was proportional to the fluorescence intensity. Drew the curve with Graphpad Prism and analyse EC50 of the compounds.

[2] = molecular target: STING (Homo sapiens, UniProt Q86WV6); assay: STING IFNβ secretion assay (THP-1 cells, AlphaLISA IFN-β kit); format: cell-based; details: 5 h incubation, secretion of IFN-β
Protocol: Plated 40 uL THP-1 cells (ATCC) as 16000 cells/well in a 96 well-plate (Corning, 3596). 3-folds dilution compounds were added to appropriate wells. The compounds were diluted with buffer (RPMI1640+2 mM L-glutamine+1× non-essential amino acids+1 mM sodium pyruvate+0.5% Fetal bovine serum), and the top dose of the compound was 100 μM, minimum dose was 1.23 μM. After 5 h incubation, […] supernant was added to 384-well plate (Greiner, Cat: 784075) and the secretion of IFN-β was detected with AllphaLISA IFN-β kit(PerkinElmer, Cat:AL577C). 1× buffer was prepared to dilute the receptor and donor, and then 4 μL 20 μg/mL Anti-pIFNβ AlphaLISA receptor was added to every well. After 30 mins incubation at room temperature, 4 μL 2 nM biotinylated Anti-pIFNβ antibody was added to a 384 well-plate, incubated overnight at 4° C. 10 μL 40 µg/mL Streptavidin (SA) donor which was diluted with 1×buffer was added, and then incubated at room temperature for 30 min. Fluorescence was read with TECAN. The expressed level of IFN-β was proportional to the fluorescence intensity. Drew the curve with Graphpad Prism and analysed EC50 of the compounds.

STING, sequence (Q86WV6 whole entry): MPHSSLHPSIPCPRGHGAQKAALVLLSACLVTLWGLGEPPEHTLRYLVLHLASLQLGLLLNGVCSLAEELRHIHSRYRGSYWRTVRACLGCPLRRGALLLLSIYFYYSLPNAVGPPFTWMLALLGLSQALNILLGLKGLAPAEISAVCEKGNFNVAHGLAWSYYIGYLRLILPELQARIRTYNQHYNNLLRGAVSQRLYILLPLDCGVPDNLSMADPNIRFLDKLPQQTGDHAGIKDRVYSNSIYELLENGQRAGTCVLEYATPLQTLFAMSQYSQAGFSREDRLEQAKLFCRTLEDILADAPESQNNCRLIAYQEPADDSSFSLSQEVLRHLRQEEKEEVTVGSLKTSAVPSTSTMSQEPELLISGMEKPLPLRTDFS

Structure (SMILES) | pEC50 [1] | pEC50 [2] | pEC50 ([1]; Homo sapiens, THP1-Dual)
Nc1ncnc2c1ncn2C1OC2COP(=O)(S)OC3C(O)C(COP(=O)(S)OC2C1F)OC3n1c(=O)sc2c(N)ncnc21 (centres unmarked) [Compound 4-p2] | – | 4.44 | 6.20
Nc1ncnc2c1ncn2C1OC2COP(=O)(S)OC3C(O)C(COP(=O)(S)OC2C1F)OC3n1c(=O)sc2c(N)ncnc21 (centres unmarked) [Compound 4-p3] | 6.38 | 4.03 | –
Nc1ncnc2c1ncn2[C@@H]1O[C@@H]2COP(=O)(S)O[C@@H]3C(O)[C@@H](COP(O)(=S)O[C@H]2[C@H]1O)O[C@H]3n1cnc2c(N)ncnc21 (some centres unmarked) [Ref. 1, MLRR-CDA, reference compound] | 5.53 | – | –
CO[C@H]1[C@H]2OP(=O)(S)OC[C@H]3O[C@@H](n4cnc5c(N)ncnc54)[C@H](F)[C@@H]3OP(=O)(S)OC[C@H]1O[C@H]2n1c(=O)sc2c(N)ncnc21 (some centres unmarked) [Compound 6-p1] | 5.64 | – | –

Other lines, results leading:

pEC50 [1] | pEC50 [2] | pEC50 ([1]; Homo sapiens, THP1-Dual) | Structure (SMILES)
4.22 | – | – | Nc1nc2c(ncn2[C@@H]2O[C@@H]3COP(=O)(S)O[C@H]4[C@@H](O)[C@H](n5cnc6ncccc6c5=O)O[C@@H]4COP(=O)(S)O[C@@H]2[C@@H]3O)c(=O)[nH]1 (some centres unmarked) [Compound 11-p1]
3.73 | – | – | Nc1nc2c(ncn2[C@@H]2O[C@@H]3COP(=O)(S)O[C@H]4[C@@H](O)[C@H](n5ccc6nccn6c5=O)O[C@@H]4COP(=O)(S)O[C@@H]2[C@@H]3O)c(=O)[nH]1 (some centres unmarked) [Compound 13-p1]
< 5.00 | – | – | Nc1ncnc2c1ncn2[C@@H]1O[C@@H]2COP(=O)(S)O[C@@H]3[C@H](O)[C@@H](COP(=O)(S)O[C@H]2[C@H]1O)O[C@H]3n1c(=O)[nH]c2c(N)ncnc21 (some centres unmarked) [Compound 1-p1]
4.34 | – | – | Nc1ncnc2c1ncn2[C@@H]1O[C@@H]2COP(=O)(S)O[C@@H]3[C@H](O)[C@@H](COP(=O)(S)O[C@H]2[C@H]1O)O[C@H]3n1c(=O)sc2c(N)ncnc21 (some centres unmarked) [Compound 2-p1]
4.15 | – | – | Nc1nc2c(ncn2[C@@H]2O[C@@H]3COP(=O)(S)O[C@H]4[C@@H](O)[C@H](n5cnc6ccccc6c5=O)O[C@@H]4COP(=O)(S)O[C@@H]2[C@@H]3O)c(=O)[nH]1 (some centres unmarked) [Compound 10-p1]
